Results from patent US20090029979A1, “5-HTX MODULATORS” (BIO-MEDISINSK INNOVASJON AS, priority 2005, published 2009).
Like-named read-outs stand apart in the source and are kept apart here.

Legend:
human 5-HT4(b) receptors [1] = target: T1, human 5-HT4(b) receptors (Homo sapiens, UniProt Q13639); assay: Radioligand binding assay with [3H]GR113808, membranes of HEK293 cells stably expressing human 5-HT4(b) receptors
T1 construct: expressed in transfected cells
Experimental: (§1) The development of HEK293 cell lines stably expressing human 5-HT4(b) receptors was described and published previously (Bach et al. 2001). Briefly, HEK293 cells (ATCC) were grown in Dulbecco's modified Eagle's medium with 10% fetal calf serum and penicillin (100 U/ml) and streptomycin (100 μg/ml). Cells were transfected with plasmid DNA (pcDNA3.1(−) containing human 5-HT4(b) receptor cDNA) using SuperFect Transfection Reagent (QIAGEN) according to the manufacturers protocol. Serial dilutions of transfected cells were plated in 96 well plates containing G418 (geneticin; Amersham) at 0.4 mg/ml, and isolated single colonies of cells transformed to the neomycin-resistant phenotype were expanded and tested for expression of serotonin receptors by measuring serotonin-stimulated adenylyl cyclase activity (Themmen et al. 1993). Transformed cells were always grown in the presence of G418 (0.4 mg/ml). For binding and adenylyl cyclase analysis, stable cell lines were grown and maintained in UltraCULTURE™ general purpose serum-free medium (BioWhittaker, Walkersville, Md., USA), supplemented with L-glutamine (2 mM), penicillin (100 U/ml) and streptomycin (100 μg/ml).
(§2) Membranes were prepared from stably transfected HEK293 cells cultured on 150-mm cell culture dishes and grown to 80% confluence in serum-free medium (UltraCULTURE™, BioWhittaker) with penicillin (10 U/ml) and 2 mM L-Glutamine (BioWhittaker). Cells were washed twice with 10 ml ice-cold HBSS, scraped with a rubber policeman in 10 ml ice-cold HBSS and collected by centrifugation at 800 g for 5 min at 4° C. The cell pellet was resuspended in 1 ml/dish ice-cold STE buffer (27% (w/v) sucrose, 50 mM Tris-HCl, pH 7.5 at 20° C., 5 mM EDTA) and homogenized with an Ultra-Turrax (IKA) homogenizer, using five 10 s bursts with 30 s cooling in ice-water between bursts. To remove nuclei, the homogenate was centrifuged at 300 g for 5 min at 4° C. and the supernatant was further centrifuged at 17000 g for 20 min at 4° C. and the supernatant removed. The crude membrane pellet was resuspended with ten strokes of tight fitting pestle B in a Dounce glass-glass homogenizer in 1 ml/dish ice-cold TE (50 mM Tris-HCl, pH 7.5 at RT, 5 mM EDTA). This procedure was repeated twice and the resuspended membranes were finally aliqouted and flash frozen in liquid nitrogen and stored at −70° C. until use.
Binding assays were performed in 96-well, round-bottom microtiter plates with total reaction volumes of 50-200 μl, containing the indicated concentration of [^3H]GR113808 with or without competing unlabelled ligand in a binding buffer containing 50 mM Tris-HCl (pH 7.5 at RT), 1 mM EDTA, 5 mM EGTA, 2 mM MgCl2, 1 mM ascorbate, 0.1% BSA and 100 μM GTP. The plates were incubated at 23° C. for 60 min and harvested onto UniFilter™-96 GF/C™ (Packard Instrument Co., Meriden, Conn., USA), presoaked in 0.3% polyethyleneimine (Sigma), using a Packard FilterMate Universal Harvester with 96-well format, and washed 4-6 times with approximately 0.25 ml/well of ice-cold buffer, containing 50 mM Tris-HCl (pH 7.0 at RT) and 2 mM MgCl2. The filters were dried and counted at approximately 40% efficiency in a Top-Count liquid scintillation counter (Packard), using 20 μl per filter well of Micro-Scint liquid scintillation cocktail (Packard).
(§3) Binding and adenylyl cyclase data were analyzed by non-linear regression using Microsoft Excel with the Solver add-in, using the below equations.
Competitive binding assays—The data were fit to the equation
where a is non-specific binding, b is total binding in the absence of competitor, c is IC50, and x is the concentration of competitor. Where relevant, relative binding data were obtained by recalculating the data using a=0 and b=100.
IC50 values from competitive binding assays were converted to Kb values by the method of Cheng and Prusoff (1973).

human 5-HT4(b) receptors [2] = target: T1, human 5-HT4(b) receptors; assay: Adenylyl cyclase assay in membranes of HEK293 cells stably expressing human 5-HT4(b) receptors; format: biochemical; conditions: for Kb: where n = 2, ± half-range, read-out: Antagonist pKb value (pKb ± SEM) (converted)
Experimental: as §1, §2
Adenylyl cyclase activity was measured by determining conversion of [α-^32P]ATP to [^32P]cAMP in membranes prepared in STE by homogenization of cells grown and washed as described above in a Dounce glass-glass homogenizer by 10 strokes with the tight-fitting pestle. Membranes were kept on ice prior to assay. Adenylyl cyclase activities were measured on 10-μl aliquots in a final volume of 50 μl in the presence of 0.1 mM [α-^32P]ATP (1-2×10^6 cpm/assay), 4 mM MgCl2, 20 μM GTP, 1 mM EDTA, 1 mM [^3H]cAMP (ca. 10,000 cpm/assay), 1 μM 3-isobutyl-1-methyl xanthine (IBMX; Sigma), a nucleoside triphosphate regenerating system consisting of 20 mM creatine phosphate (Sigma), 0.2 mg/ml creatine phosphokinase (Sigma) and 40 U/ml myokinase (Sigma) and additives described in the text and figures. When forskolin (Calbiochem, La Jolla, Calif., USA) was used the concentration was 100 μM. Incubations were for 20 min at 32° C. Cyclic AMP formed was quantified by the double column chromatography system of Salomon et al. (1974) as modified by Bockaert et al. (1976).
as §3
Activation of adenylyl cyclase—The data were fit to the equation
where a is basal adenylyl cyclase activity, b is maximal adenylyl cyclase activity stimulated by the agonist, c is EC50, and x is the concentration of agonist.

[3] = [3H]GR113808, HEK293 membranes, human 5-HT4(b), where n = 2, ± half-range, read-out: Binding affinity (pKd value) (pKd ± SEM) (converted)

T1 sequence (Q13639 whole entry): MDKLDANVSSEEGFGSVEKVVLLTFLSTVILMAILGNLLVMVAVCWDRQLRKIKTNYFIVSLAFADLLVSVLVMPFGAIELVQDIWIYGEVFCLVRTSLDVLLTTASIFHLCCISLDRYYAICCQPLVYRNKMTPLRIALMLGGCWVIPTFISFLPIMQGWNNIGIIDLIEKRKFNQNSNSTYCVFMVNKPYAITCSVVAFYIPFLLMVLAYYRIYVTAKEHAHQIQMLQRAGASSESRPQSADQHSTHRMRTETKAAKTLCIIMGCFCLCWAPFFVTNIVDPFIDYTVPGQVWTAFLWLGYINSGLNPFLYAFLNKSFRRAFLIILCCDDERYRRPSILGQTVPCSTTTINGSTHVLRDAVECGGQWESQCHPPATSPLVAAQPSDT

Row | SMILES | Kd (human 5-HT4(b) receptors [1]; [3]) | Agonist/Antagonist properties (human 5-HT4(b) receptors [2]) | Kb (human 5-HT4(b) receptors [2]) | Kd (human 5-HT4(b) receptors [1])
1 | CC(C)n1nc(C(=O)NC2CCN(CCCC(=O)O)CC2)c2ccccc21 [Example 33] | 692 nM | Partial agonist | 1050 nM | –
2 | CC(C)n1nc(C(=O)NC2CCN(Cc3ccccc3)CC2)c2ccccc21 [Example 29, N-(1-benzylpiperidin-4-yl)-1-isopropylindazole-3-carboxamide] | 200 nM | Partial agonist | 309 nM | –
3 | CCOC(=O)CCCN1CCC(CNC(=O)c2cc(Cl)c(N)cc2OC)CC1 [Example 40] | 20 nM | Partial agonist | 66.1 nM | –
4 | O=C(O)CCCN1CCC(NC(=O)c2cccc3ccccc23)CC1 [Example 17] | 1000 nM | – | 38000 nM | –
5 | O=C(NCC1CCN(Cc2ccccc2)CC1)c1c2n(c3ccccc13)CCCO2 [Example 47] | – | Antagonist | 0.427 nM | 0.158 nM
6 | CC(C)n1nc(C(=O)NC2CCN(Cc3ccc(C(=O)OCC(Cl)(Cl)Cl)cc3)CC2)c2ccccc21 [Example 35] | 1200 nM | Partial agonist | 724 nM | –
7 | Cn1cc(C(=O)OCC2CCN(CCNS(C)(=O)=O)CC2)c2ccccc21 [GR113808, 1-methyl-1H-indole-3-carboxylic acid, [1-[2-[(methylsulfonyl)amino]ethyl]-4-piperidinyl]methyl ester, reference compound] | 0.0813 nM | Antagonist | 0.537 nM | –
8 | CC(C)n1nc(C(=O)NC2CCN(Cc3ccc(C(=O)O)cc3)CC2)c2ccccc21 [Example 36] | 2190 nM | – | 1150 nM | –
9 | O=C(CCCN1CCC(CNC(=O)c2c3n(c4ccccc24)CCCO3)CC1)OCC(Cl)(Cl)Cl [Example 51] | – | – | 0.537 nM | 0.263 nM
10 | O=C(O)CN1CCN(S(=O)(=O)CCCN2CCC(CNC(=O)c3cccc4c3OCCO4)CC2)CC1 [Example 67] | 0.813 nM | Antagonist | 2.75 nM | –
11 | CCOC(=O)CCCN1CCC(NC(=O)c2cccc3ccccc23)CC1 [Example 18] | 1580 nM | Antagonist | 3240 nM | –
12 | O=C(O)CCCN1CCC(COC(=O)c2cccc3ccccc23)CC1 [Example 26] | 12.9 nM | Weak partial | 69.2 nM | –
13 | CCOC(=O)CCCN1CCC(COC(=O)c2cccc3ccccc23)CC1 [Example 25] | 6.46 nM | Antagonist | 6.61 nM | –
14 | O=C(O)CCCN1CCC(CNC(=O)c2c[nH]c3ccccc23)CC1 [Example 62] | 3630 nM | – | 28200 nM | –
15 | CCOP(=O)(CCN1CCC(CNC(=O)c2c3n(c4ccccc24)CCCO3)CC1)OCC [Example 53] | 1.32 nM | Antagonist | 2.51 nM | –
16 | O=C(O)CCCN1CCC(CNC(=O)c2c3n(c4ccccc24)CCCO3)CC1 [Example 52] | 2.09 nM | – | 11 nM | –
17 | O=C(OCC1CCN(Cc2ccccc2)CC1)c1cccc2ccccc12 [Example 22, 1-[(1-benzylpiperidin-4-yl)carboxymethyl] napthalene] | 42.7 nM | Weak partial | 11.2 nM | –
18 | O=C(CCCN1CCC(COC(=O)c2c[nH]c3ccccc23)CC1)OCC(Cl)(Cl)Cl [Example 12, 1H-indole-3-carboxylic acid 1-[3-(2,2,2-trichloroethyl-ethoxycarbonyl)-propyl]-piperidine-4-ylmethyl ester] | 5.01 nM | – | 0.741 nM | –
19 | CCOC(=O)CCCN1CCC(CNC(=O)c2c3n(c4ccccc24)CCCO3)CC1 [Example 49] | – | Antagonist | 1.55 nM | 0.123 nM
20 | CCOC(=O)CCCN1CCC(NC(=O)c2nn(C(C)C)c3ccccc23)CC1 [Example 31] | 67.6 nM | Partial agonist | 178 nM | –
21 | CCCCN1CCC(CNC(=O)c2c3n(c4ccccc24)CCCO3)CC1 [SB207266, reference compound] | – | Antagonist | – | –
